Data published in the supplement of paper PMC6045584.
± gives the standard deviation of the averaged measurements.

Columns and labels:
[1] = compound: T1, C[C@]1(O)C[C@@H](c2nc(-c3ccc4ccc(-c5ccccc5)nc4c3)c3c(N)nccn32)C1 [OSI-906]; experiment: surviving fraction relative to DMSO-only wells; higher = less growth inhibition; conditions: exposure time: 5 days
How it was run: (§1)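 Viability was determined by CellTiter-Glo luminescence, expressed as surviving fraction normalised to the median of DMSO-only wells. The cells were log-phase tumour cell lines seeded at 250–500 per well in 384-well plates and, after 24 hours, exposed continuously for five days to inhibitors at 0.5, 1, 5, 10, 50, 100, 500 and 1000 nM. Three screens per line were run, keeping only lines with replicate Pearson r >0.7 and median Z' >0.3.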

[2] = compound: CC(=O)NCC(=O)N1[C@@H]2CC[C@H]1c1ccc(Nc3ncc(C(F)(F)F)c(NC4CCC4)n3)cc12; experiment: as above; conditions: exposure time: 5 days
How it was run: as §1

[3] = compound: T2, CC(=O)O[C@H]1C(=O)[C@@]2(C)[C@H]([C@H](OC(=O)c3ccccc3)[C@]3(O)C[C@H](OC(=O)[C@H](O)[C@@H](NC(=O)c4ccccc4)c4ccccc4)C(C)=C1C3(C)C)[C@]1(OC(C)=O)CO[C@@H]1C[C@@H]2O [PACLITAXEL]; experiment: as above; conditions: exposure time: 5 days
How it was run: as §1

[4] = compound: T3, O=C(O)C1(C(=O)O)CCC1.[NH2-].[NH2-].[Pt+2] [CARBOPLATIN]; experiment: as above; conditions: exposure time: 5 days
How it was run: as §1

[5] = compound: T4, COc1cc2ncnc(Nc3ccc(F)c(Cl)c3)c2cc1OCCCN1CCOCC1 [GEFITINIB]; experiment: as above; conditions: exposure time: 5 days
How it was run: as §1

[6] = compound: CC(=O)c1c(C)c2cnc(Nc3ccc(N4CCNCC4)cn3)nc2n(C2CCCC2)c1=O; experiment: as above; conditions: exposure time: 5 days
How it was run: as §1

[7] = compound: T5, COCC[n+]1c2c(n(Cc3cnccn3)c1C)C(=O)c1ccccc1C2=O [YM155]; experiment: as above; conditions: exposure time: 5 days
How it was run: as §1

[8] = compound: T6, Cc1ccc(-c2cc(C(F)(F)F)nn2-c2ccc(S(N)(=O)=O)cc2)cc1 [CELECOXIB]; experiment: as above; conditions: exposure time: 5 days
How it was run: as §1

[9] = compound: CC[C@@]1(O)C(=O)OCc2c1cc1n(c2=O)Cc2cc3ccccc3nc2-1 [CAMPTOTHECIN]; experiment: as above; conditions: exposure time: 5 days
How it was run: as §1

[10] = compound: T1, OSI-906; experiment: area under dose-response curve of surviving fraction (unscaled, Aref=0) (surviving fraction x log10(nM)); higher = more resistant; conditions: exposure time: 5 days; dose range 0.5-1000 nM
How it was run: (§2)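 Surviving fractions were fitted by 3-parameter logistic regression in the drc R package to give dose-response survival curves. They came from tumour cell lines treated for five days with eight inhibitor concentrations from 0.5 to 1000 nM and read by CellTiter-Glo luminescence against DMSO-only wells. The area under the curve is the unscaled activity area. It was calculated over log10 dose with Aref = 0.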

[11] = compound: CC(=O)NCC(=O)N1[C@@H]2CC[C@H]1c1ccc(Nc3ncc(C(F)(F)F)c(NC4CCC4)n3)cc12; experiment: as above; conditions: exposure time: 5 days; dose range 0.5-1000 nM
How it was run: as §2

[12] = compound: T2, PACLITAXEL; experiment: as above; conditions: exposure time: 5 days; dose range 0.5-1000 nM
How it was run: as §2

[13] = compound: T3, CARBOPLATIN; experiment: as above; conditions: exposure time: 5 days; dose range 0.5-1000 nM
How it was run: as §2

[14] = compound: T4, GEFITINIB; experiment: as above; conditions: exposure time: 5 days; dose range 0.5-1000 nM
How it was run: as §2

[15] = compound: CC(=O)c1c(C)c2cnc(Nc3ccc(N4CCNCC4)cn3)nc2n(C2CCCC2)c1=O; experiment: as above; conditions: exposure time: 5 days; dose range 0.5-1000 nM
How it was run: as §2

[16] = compound: T5, YM155; experiment: as above; conditions: exposure time: 5 days; dose range 0.5-1000 nM
How it was run: as §2

[17] = compound: T6, CELECOXIB; experiment: as above; conditions: exposure time: 5 days; dose range 0.5-1000 nM
How it was run: as §2

Test System SUM149.B1*.S BREAST has a surviving fraction ([1]; 0.5 nM) of 0.935 ± 0.025, a surviving fraction ([1]; 1 nM) of 0.927 ± 0.032 and a surviving fraction ([1]; 5 nM) of 0.92 ± 0.041. For the same test system, the surviving fraction ([1]; 10 nM) was 0.926 ± 0.025, the surviving fraction ([1]; 50 nM) was 0.974 ± 0.037 and the surviving fraction ([1]; 100 nM) was 0.947 ± 0.004. It also gave a surviving fraction ([1]; 500 nM) of 0.943 ± 0.032, a surviving fraction ([1]; 1000 nM) of 0.888 ± 0.057 and a surviving fraction ([2]; 0.5 nM) of 1 ± 0.017. It also gave a surviving fraction ([2]; 1 nM) of 1.01 ± 0.037, a surviving fraction ([2]; 5 nM) of 0.979 ± 0.017 and a surviving fraction ([2]; 10 nM) of 0.976 ± 0.038. For the same test system, the surviving fraction ([2]; 50 nM) was 0.938 ± 0.047, the surviving fraction ([2]; 100 nM) was 0.685 ± 0.049 and the surviving fraction ([2]; 500 nM) was 0.569 ± 0.024. It also gave a surviving fraction ([2]; 1000 nM) of 0.499 ± 0.043, a surviving fraction ([3]; 0.5 nM) of 0.994 ± 0.029 and a surviving fraction ([3]; 1 nM) of 1.02 ± 0.048. The surviving fraction ([3]; 5 nM) was 0.238 ± 0.027, the surviving fraction ([3]; 10 nM) was 0.158 ± 0.029 and the surviving fraction ([3]; 50 nM) was 0.1 ± 0.0056. For the same test system, the surviving fraction ([3]; 100 nM) was 0.0972 ± 0.0036, the surviving fraction ([3]; 500 nM) was 0.091 ± 0.0063 and the surviving fraction ([3]; 1000 nM) was 0.097 ± 0.0076. For the same test system, the surviving fraction ([4]; 0.5 nM) was 1.15 ± 0.096, the surviving fraction ([4]; 1 nM) was 1.11 ± 0.02 and the surviving fraction ([4]; 5 nM) was 1.12 ± 0.07. For the same test system, the surviving fraction ([4]; 10 nM) was 1.07 ± 0.025, the surviving fraction ([4]; 50 nM) was 1.17 ± 0.024 and the surviving fraction ([4]; 100 nM) was 1.2 ± 0.029. It also gave a surviving fraction ([4]; 500 nM) of 1.19 ± 0.052, a surviving fraction ([4]; 1000 nM) of 1.13 ± 0.025 and a surviving fraction ([5]; 0.5 nM) of 1.11 ± 0.044. For the same test system, the surviving fraction ([5]; 1 nM) was 1.1 ± 0.027, the surviving fraction ([5]; 5 nM) was 1.11 ± 0.021 and the surviving fraction ([5]; 10 nM) was 1.1 ± 0.023. The surviving fraction ([5]; 50 nM) was 1.1 ± 0.026, the surviving fraction ([5]; 100 nM) was 1.1 ± 0.06 and the surviving fraction ([5]; 500 nM) was 1.03 ± 0.034. For the same test system, the surviving fraction ([5]; 1000 nM) was 0.98 ± 0.032, the surviving fraction ([6]; 0.5 nM) was 1.13 ± 0.034 and the surviving fraction ([6]; 1 nM) was 1.07 ± 0.013. For the same test system, the surviving fraction ([6]; 5 nM) was 1.11 ± 0.018, the surviving fraction ([6]; 10 nM) was 1.07 ± 0.019 and the surviving fraction ([6]; 50 nM) was 1.19 ± 0.056. For the same test system, the surviving fraction ([6]; 100 nM) was 1.22 ± 0.058, the surviving fraction ([6]; 500 nM) was 1.139 ± 0.011 and the surviving fraction ([6]; 1000 nM) was 1.08 ± 0.021. For the same test system, the surviving fraction ([7]; 0.5 nM) was 0.847 ± 0.051, the surviving fraction ([7]; 1 nM) was 1.02 ± 0.068 and the surviving fraction ([7]; 5 nM) was 0.903 ± 0.068. For the same test system, the surviving fraction ([7]; 10 nM) was 0.583 ± 0.058, the surviving fraction ([7]; 50 nM) was 0.0738 ± 0.0063 and the surviving fraction ([7]; 100 nM) was 0.0278 ± 0.0019. The surviving fraction ([7]; 500 nM) was 0.0225 ± 0.00087, the surviving fraction ([7]; 1000 nM) was 0.0277 ± 0.0011 and the surviving fraction ([8]; 0.5 nM) was 1.075 ± 0.01. For the same test system, the surviving fraction ([8]; 1 nM) was 1.09 ± 0.021, the surviving fraction ([8]; 5 nM) was 1.13 ± 0.075 and the surviving fraction ([8]; 10 nM) was 1.12 ± 0.016. For the same test system, the surviving fraction ([8]; 50 nM) was 1.14 ± 0.055, the surviving fraction ([8]; 100 nM) was 1.16 ± 0.038 and the surviving fraction ([8]; 500 nM) was 1.12 ± 0.067. For the same test system, the surviving fraction ([8]; 1000 nM) was 1.2 ± 0.029, the surviving fraction ([9]; 0.5 nM) was 0.467 ± 0.023 and the surviving fraction ([9]; 1 nM) was 0.853 ± 0.024. The surviving fraction ([9]; 5 nM) was 0.692 ± 0.075, the surviving fraction ([9]; 10 nM) was 0.301 ± 0.021 and the surviving fraction ([9]; 50 nM) was 0.0407 ± 0.0027. The surviving fraction ([9]; 100 nM) was 0.0422 ± 0.0024, the surviving fraction ([9]; 500 nM) was 0.0262 ± 0.0016 and the surviving fraction ([9]; 1000 nM) was 0.0295. For the same test system, the “area under dose-response curve” value [10] was 2.99, the “area under dose-response curve” value [11] was 3.06 and the “area under dose-response curve” value [12] was 1.21. The “area under dose-response curve” value [13] was 3.85, the “area under dose-response curve” value [14] was 3.6 and the “area under dose-response curve” value [15] was 3.76. The “area under dose-response curve” value [16] was 1.66 and the “area under dose-response curve” value [17] was 3.73.
